Values quoted from earlier work in patent US8354121B2, “Tape preparation” (Dainippon Sumitomo Pharma Co., Ltd., priority 2006, dated 2013).

What was measured:
dopamine D2 receptor = dopamine D2 receptor (Homo sapiens, UniProt P14416); details: compared with haloperidol
serotonin 5-HT2 receptor = details: compared with haloperidol

Sequence of dopamine D2 receptor (P14416 whole entry, species assumed): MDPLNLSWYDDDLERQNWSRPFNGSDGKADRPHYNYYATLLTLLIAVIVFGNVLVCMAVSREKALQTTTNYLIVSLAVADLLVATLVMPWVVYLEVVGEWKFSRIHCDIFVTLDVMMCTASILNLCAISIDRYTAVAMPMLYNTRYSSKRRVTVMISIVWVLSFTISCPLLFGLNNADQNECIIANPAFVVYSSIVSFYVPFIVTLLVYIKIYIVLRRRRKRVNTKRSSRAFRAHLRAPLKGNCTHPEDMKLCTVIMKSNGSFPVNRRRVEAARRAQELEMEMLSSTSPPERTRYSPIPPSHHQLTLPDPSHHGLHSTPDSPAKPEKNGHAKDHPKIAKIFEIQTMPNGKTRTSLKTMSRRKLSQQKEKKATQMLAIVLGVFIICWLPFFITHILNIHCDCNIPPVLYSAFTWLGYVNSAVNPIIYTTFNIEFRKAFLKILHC

In the case of `CCN1CCN(c2cc(-c3ccc(F)cc3)c3c(n2)CCCCCC3)CC1` [Compound A, 2-(4-ethyl-1-piperazinyl)-4-(4-fluorophenyl)-5,6,7,8,9,10-hexahydrocycloocta[b]pyridine], the “affinity for dopamine D2 receptor” value (dopamine D2 receptor) is given as “higher affinity” and the “affinity for serotonin 5-HT2 receptor” value (serotonin 5-HT2 receptor) is given as “higher affinity”.
